Results: patent publication US20230348394A1, “COMPOSITIONS AND METHODS FOR TREATING MUSCULAR DYSTROPHIES” (The Regents of the University of California, priority 2020, published 2023)

System: alpha-dystroglycan (α-DG)
Experiment: Immunoblot of total protein lysates, C2C12 myotubes
Format: cell-based, murine
Conditions: 5 μM, 48 hours
Experimental: Myotubes treated for 48 hrs were lysed using RIPA buffer (Thermo Fisher Scientific) containing Halt Protease Inhibitor Cocktail (Thermo Fisher Scientific). Cell lysates in RIPA buffer were rocked for 1 hr at 4° C. and centrifuged at 1,000 RPM for 30 mins at 4° C. The supernatant was collected, quantified for protein concentration using the DC protein assay (Bio-Rad), and normalized to 2 mg/ml in water and Laemmli sample buffer with a final concentration of 10% glycerol (Sigma-Aldrich), 5% beta-mercaptoethanol (Sigma-Aldrich), 3% sodium dodecyl sulfate (Sigma-Aldrich), and 0.05% bromophenol blue (Sigma-Aldrich). For SDS-PAGE, samples were heated to 95° C. for 2 mins before loading 40 μg onto 4-12% tris-glycine or bis-tris polyacrylamide gels (Novex), electrophoresed for 2 hrs at 100 volts at RT, and transferred to a nitrocellulose membrane for 2 hrs at 100 volts at 4° C. Ponceau S staining was performed to visualize protein loading and verify protein transfer. […] Autoradiography films were developed using a SRX-101A tabletop processor (Konica Minolta), scanned to a digital file, and analyzed by densitometry of bands using ImageJ version 1.51 s. […]

In the case of `CCN(CC)c1ccc2cc(C(=O)Nc3ccc(C(=O)N4CCCCCC4)cc3)c(=O)oc2c1` [OT-9], the “increase of core α-DG in total protein lysates” value is reported as 1.5 fold and the “levels of glycosylated α-DG in total protein lysates” value is reported as “did not increase levels of glycosylated α-DG”.
